Reference: patent EP1028948B1, “PHENYL-ALKYL-IMIDAZOLES AS H3 RECEPTOR ANTAGONISTS” (SCHERING CORPORATION, priority 1997, dated 1999)

Molecular target: T1, H3 receptors (Cavia porcellus, UniProt Q9JI35)
T1 construct: The brain tissue was homogenized using a Polytron in a solution of 50 mM Tris, pH 7.5; from tissue; host or cells: guinea pig brain membranes
Assay: H3 Receptor Binding Assay
Settings: guinea pig brain membranes; 3 nM [3H]R-α-methylhistamine or 3 nM [3H]Nα-methylhistamine; 30°C for 30 min
Procedure: The source of the H3 receptors in this experiment was guinea pig brain. The animals weighed 400-600 g. […] The final concentration of tissue in the homogenization buffer was 10% w/v. […] The membranes were frozen and stored at -70°C until needed.
Membranes were then added (400 µg of protein) to the reaction tubes. […] Bound ligand was separated from unbound ligand by filtration, and the amount of radioactive ligand bound to the membranes was quantitated by liquid scintillation spectrometry.

T1 sequence (Q9JI35 whole entry): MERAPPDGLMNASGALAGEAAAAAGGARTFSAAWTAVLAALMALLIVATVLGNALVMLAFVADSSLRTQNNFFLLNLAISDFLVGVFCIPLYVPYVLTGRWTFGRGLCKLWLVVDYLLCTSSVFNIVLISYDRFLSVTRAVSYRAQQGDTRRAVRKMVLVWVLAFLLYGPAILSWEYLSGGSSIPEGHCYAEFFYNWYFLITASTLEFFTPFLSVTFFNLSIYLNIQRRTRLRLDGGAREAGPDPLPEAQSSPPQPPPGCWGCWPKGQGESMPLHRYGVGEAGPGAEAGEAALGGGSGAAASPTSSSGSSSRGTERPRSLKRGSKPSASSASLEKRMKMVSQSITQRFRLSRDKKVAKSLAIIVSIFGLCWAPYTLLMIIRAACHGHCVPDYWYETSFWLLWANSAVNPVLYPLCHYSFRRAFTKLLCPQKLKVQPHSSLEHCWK

## O=C(/C=C/c1ccc(Cc2c[nH]cn2)cc1)NCCc1ccc(Cl)cc1 [Compound 3]
  Ki: 1 to 19 nM
